Values quoted from earlier work in patent US8470984B2, “Process for the preparation of morpholinyl anthracycline derivatives” (Nerviano Medical Sciences S.R.L., priority 2010, dated 2013).

How the values were obtained:
[1] = test system: tumor models

Compound: COc1cccc2c1C(=O)c1c(O)c3c(c(O)c1C2=O)C[C@@](O)(C(=O)CO)C[C@@H]3O[C@H]1C[C@H]2[C@H](O[C@@H]3[C@@H](OC)OCCN32)[C@H](C)O1 [compound 1, 3′-deamino-3″-4′-anhydro-[2″(S)-methoxy-3″(R)-hydroxy-4″-morpholinyl]doxorubicin]
- cytotoxicity in vitro relative to nemorubicin and doxorubicin: more cytotoxic than nemorubicin and doxorubicin
- efficacy in in vivo tumor models [1]: effective in in vivo tumor models
